Key:
Type in all cases: cell-based
[1] = test system: Sporothrix schenkii; assay: Antifungal activity in vitro, resazurin growth inhibition: Sporothrix schenkii (B62482)
How it was run: (§1)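 Compound dilutions, with 64 μM as the highest in-test level, are spotted onto plates, then an inoculum of 10^3 cfu in RPMI-1640 plus 2% glucose (MOPS, pH 7.0±0.1) is added. Plates are incubated at species-dependent time and temperature, up to a week or more at 27° C. for dermatophytes.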

[2] = test system: Candida parapsilosis; assay: Antifungal activity in vitro, resazurin growth inhibition: Candida parapsilosis (B66126)
How it was run: as §1

[3] = test system: Microsporum canis; assay: Antifungal activity in vitro, resazurin growth inhibition: Microsporum canis (B68128)
How it was run: (§2)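 Broth microdilution: RPMI-1640/L-Gln/2% glucose, MOPS pH 7.0±0.1; 10^3 cfu/well; top concentration 64 μM, 2- or 4-fold steps. Dermatophytes at 27° C., one week or more. Resazurin 0.005% (w/v) added, fluorescence 550/590 nm.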

[4] = test system: Trichophyton rubrum; assay: Antifungal activity in vitro, resazurin growth inhibition: Trichophyton rubrum (B68183)
How it was run: as §2

[5] = test system: Aspergillus fumigatus; assay: Antifungal activity in vitro, resazurin growth inhibition: Aspergillus fumigatus (B42928)
How it was run: as §1

[6] = test system: Rhizomucor miehei; assay: Antifungal activity in vitro, resazurin growth inhibition: Rhizomucor miehei (IHEM13391)
Method: (§3) The standard susceptibility screen is performed in 96-well plates (U-bottom, Greiner Bio-One). Serial dilutions (2-fold or 4-fold) of 20 mM compound stock solutions are made in 100% DMSO, followed by an intermediate dilution step in water. These serial dilutions (10 μl) are then spotted onto test-plates that can be stored in the dark at 4° C. for a maximum period of 2 weeks. An adequate broad dose-range is included with 64 μM as the highest in-test concentration. The culture medium RPMI-1640 is supplemented with L-glutamine, 2% glucose and buffered with 3-(N-morpholino)-propanesulfonic acid (MOPS) at pH 7.0±0.1.
(§4) The different fungal species/isolates (Table 3a) are cryopreserved and 1/1000 diluted in medium just prior to use. A standard inoculum of 200 μl containing 10^3 colony-forming unit (cfu) is then added to each well. A positive control (100% growth=fungal culture without antifungal) and a negative control (0% growth ═RPMI-MOPS medium) are included on each plate. Optimal incubation time and temperature are dependent on the fungal species and vary from 24 h for yeasts (37° C.) to one week or more for dermatophytes (27° C.). Inhibition of fungal growth is measured after adding 10 μl of 0.005% (w/v) resazurin (Sigma Aldrich) to each well, based on the principle that living cells convert the non-fluorescent blue resazurin into the pink and fluorescent resorufin, allowing fluorimetric reading (λex 550 nm and λem 590 nm) after an additional incubation period (‘resa’ time mentioned in Table 3a).

[7] = test system: Scedosporium prolificans; assay: Antifungal activity in vitro, resazurin growth inhibition: Scedosporium prolificans (IHEM21157)
How it was run: as §1

[8] = test system: Cryptococcus neoformans; assay: Antifungal activity in vitro, resazurin growth inhibition: Cryptococcus neoformans (B66663)
How it was run: as §1

[9] = test system: Rhizopus oryzae; assay: Antifungal activity in vitro, resazurin growth inhibition: Rhizopus oryzae (IHEM5223)
Method: as §3, §4

[10] = test system: Scedosporium apiospermum; assay: Antifungal activity in vitro, resazurin growth inhibition: Scedosporium apiospermum (IHEM3817)
How it was run: as §1

[11] = test system: Trichophyton mentagrophytes; assay: Antifungal activity in vitro, resazurin growth inhibition: Trichophyton mentagrophytes (B70554)
How it was run: as §2

| Structure (SMILES) | Inf. A: Sporothrix schenkii B62482, pIC50 [1] | Inf. D: Candida parapsilosis B66126, pIC50 [2] | Inf. B: Microsporum canis B68128, pIC50 [3] | Inf. C: Trichophyton rubrum B68183, pIC50 [4] | Inf. E: Aspergillus fumigatus B42928, pIC50 [5] | Inf. K: Rhizomucor miehei IHEM13391, pIC50 [6] | Inf. I: Scedosporium prolificans IHEM21157, pIC50 [7] | Inf. F: Cryptococcus neoformans B66663, pIC50 [8] | Inf. J: Rhizopus oryzae IHEM5223, pIC50 [9] | Inf. H: Scedosporium apiospermum IHEM3817, pIC50 [10] | Inf. G: Trichophyton mentagrophytes B70554, pIC50 [11] |
| --- | --- | --- | --- | --- | --- | --- | --- | --- | --- | --- | --- |
| CC(=O)c1ccc(C2=NCc3c(Cl)cccc3-n3cccc32)cn1 [Compound 92] | <4.19 | <4.19 | <4.19 | 6.09 | <4.19 | <4.19 | <4.19 | <4.19 | <4.19 | <4.19 | <4.19 |
| CC(=O)c1ccc(C2=NCc3c(F)cc(F)cc3-n3cccc32)cn1 [Compound 94] | <4.19 | 4.59 | 5.71 | 6.19 | 5.13 | <4.19 | <4.19 | 4.58 | <4.19 | <4.19 | 5.92 |
| FC(F)(F)c1ncc(C2=NCc3c(Cl)cccc3-n3cccc32)cn1 [Compound 102] | 4.59 | <4.19 | 6.34 | 6.84 | 5.05 | <4.19 | 5.18 | <4.19 | <4.19 | <4.19 | 6.01 |
| Clc1cccc2c1CN=C(c1cnc3c(c1)CCC3)c1cccn1-2 [Compound 105] | 5.70 | 4.91 | 6.67 | 6.87 | 5.76 | 4.23 | 8.00 | 5.30 | <4.19 | 7.52 | 6.91 |
| Cn1ccc2cc(C3=NCc4c(Cl)cc(Cl)cc4-n4cccc43)ccc21 [Compound 107] | 5.16 | 4.87 | 6.31 | 5.92 | 5.06 | <4.19 | 5.48 | 5.53 | <4.19 | 4.90 | 5.44 |
| Cn1nnc2ccc(C3=NCc4c(Cl)cccc4-n4cccc43)cc21 [Compound 110] | 4.44 | 4.58 | 5.30 | 5.96 | 5.50 | <4.49 | 5.89 | 5.09 | <4.49 | 4.77 | 5.60 |
| Cn1nnc2ccc(C3=NCc4c(Cl)cc(Cl)cc4-n4cccc43)cc21 [Compound 111] | 4.41 | <4.19 | 5.69 | 6.09 | 5.76 | 4.53 | 6.77 | 5.74 | <4.19 | 5.77 | 5.31 |
| c1ccc2c(c1)CN=C(c1cc3ccccc3o1)c1cccn1-2 [Compound 115] | 5.70 | 4.25 | 7.02 | 7.47 | 6.82 | 4.88 | 5.98 | 5.70 | <4.19 | <4.19 | 7.28 |
| Cc1cccc2c1CN=C(c1cc3ccccc3o1)c1cccn1-2 [Compound 116] | 5.84 | 4.70 | 7.39 | 7.52 | 6.26 | 4.81 | 6.46 | 5.65 | <4.19 | 6.22 | 6.83 |
| Cc1cccc2c1-n1cccc1C(c1cc3ccccc3o1)=NC2 [Compound 117] | 5.74 | <4.19 | 6.52 | 7.07 | 5.98 | 4.80 | 5.97 | 5.77 | <4.19 | 4.80 | 6.43 |
| Clc1ccc2c(c1)-n1cccc1C(c1cc3ccccc3o1)=NC2 [Compound 119] | 6.00 | 5.61 | 6.54 | 6.87 | 6.30 | <4.19 | 6.17 | 6.40 | <4.19 | <4.19 | 6.62 |

Reference: patent US9493468B2, “Antifungal 5,6-dihydro-4H-pyrrolo[1,2-a][1,4]benzo-diazepines and 6H-pyrrolo[1,2-a][1,4]benzodiazepines substituted with heterocyclic derivatives” (Janssen Pharmaceutica NV, priority 2011, dated 2016)
